According to paper PMC11106165, “Repurposing the KCa3.1 Blocker Senicapoc for Ischemic Stroke” (Translational Stroke Research, 2023):

Experiments:
human tPA = biological target: T1, human tPA (Homo sapiens, UniProt P00750); assay: Chromogenic tPA activity assay; type: biochemical; settings: 30-min assay
T1 construct: purchased Abcam ab108905
Description: The commercially available tPA Activity Assay Kit (Abcam, ab108905) was used to assess whether senicapoc and TRAM-34 affect the ability of human tPA to cleave its substrate plasminogen similar to protocols published by Lapchak and Boitano [38] and Lapchak et al.. Reactions were run in optically clear flat-bottom 96-well plates (Corning, Catalog #3904). Human plasminogen activator inhibitor-1 (PAI-1; Sigma-Aldrich CC4075) was used as a positive control. Human plasminogen, the chromogenic plasmin substrate, and human tPA were included in the tPA Activity Assay Kit. […] The reactions were pre-incubated at 37 °C for 5 min prior to the addition of the chromogenic plasmin substrate and subsequently placed in a heated SpectraMax M5 spectrophotometer. Absorbances at 405 nm were measured every 30 s for 30 min.

rats or mice, tMCAO = system: rats or mice, tMCAO; design: method as in PMID 21750563, PMID 26661208; settings: cited from earlier work
[1] = design: method as in PMID 22675649; settings: cited from earlier work

T1 sequence (P00750 36-562): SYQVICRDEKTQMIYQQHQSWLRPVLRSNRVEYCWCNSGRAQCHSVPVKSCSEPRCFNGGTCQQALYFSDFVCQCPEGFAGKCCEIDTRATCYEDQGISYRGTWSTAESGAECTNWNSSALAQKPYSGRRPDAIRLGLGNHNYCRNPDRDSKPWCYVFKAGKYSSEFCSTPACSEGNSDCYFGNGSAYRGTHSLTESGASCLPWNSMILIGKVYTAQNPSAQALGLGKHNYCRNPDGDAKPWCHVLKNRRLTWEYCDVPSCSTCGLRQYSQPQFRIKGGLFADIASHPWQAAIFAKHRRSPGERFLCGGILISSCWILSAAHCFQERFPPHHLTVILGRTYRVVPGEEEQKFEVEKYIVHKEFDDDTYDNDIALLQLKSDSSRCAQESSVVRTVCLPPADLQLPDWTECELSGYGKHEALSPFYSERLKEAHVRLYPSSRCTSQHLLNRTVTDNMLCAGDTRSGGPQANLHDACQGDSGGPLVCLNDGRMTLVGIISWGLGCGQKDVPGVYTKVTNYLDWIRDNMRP

plasminogen activator inhibitor-1 [PAI-1]
effect on tPA activity (absorbance at 405 nm) (human tPA; positive control): strongly inhibited

Clc1ccccc1C(c1ccccc1)(c1ccccc1)n1cccn1 [TRAM-34]
effect on tPA activity (absorbance at 405 nm) (human tPA; 0.5 μM and 5 μM, PBS with 10% human serum): do not interfere with tPA activity | reduction in infarct area (rats or mice, tMCAO; MCAO, 11 animals per group): ~ 50% | infarct area (rats or mice, tMCAO; rats or mice, 8 days after tMCAO with reperfusion): significantly smaller infarct areas | metabolic stability [1]: metabolic instability | oral availability [1]: not orally available | half-life ([1]; rats and primates): ~ 2 h
